# Assay results reported in BindingDB's records for doi:10.1016/j.ejmech.2019.01.044 (Institute of Agricultural and Food Biotechnology, 2019).
# Target: T1, Proteasome subunit beta type-5 (Rattus norvegicus, UniProt P28075)
# T1 sequence (P28075 whole entry): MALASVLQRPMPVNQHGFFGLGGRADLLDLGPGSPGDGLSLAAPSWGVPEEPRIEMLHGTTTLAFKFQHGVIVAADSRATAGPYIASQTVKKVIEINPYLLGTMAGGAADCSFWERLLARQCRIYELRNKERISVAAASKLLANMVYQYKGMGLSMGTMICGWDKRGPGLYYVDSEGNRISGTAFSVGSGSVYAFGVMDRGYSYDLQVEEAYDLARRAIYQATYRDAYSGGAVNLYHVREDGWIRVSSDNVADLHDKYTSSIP
# Assay: Inhibition of chymotrypsin-like activity of rat liver 26 proteasome assessed as decrease in fluorescence using succinyl-Leu-Leu-Val-Tyr-4-methylcoumaryl-7-amide as substrate preincubated for 30 mins followed by addition of substrate and measured after 1 hr by fluorescence based method
row,IC50 [nM],Compound
1,71.3,C=CC(/C=C\c1ccc(O)cc1)c1ccc(O)cc1 (centres undefined)
2,> 960,COc1cc(O)c(C(=O)c2ccc(O)cc2)c(O)c1
3,234,Oc1ccc(CC2COc3cc(O)ccc3C2)cc1 (centres undefined)
4,178,COc1cc(O)ccc1CCCc1ccc(O)cc1 [BROUSSONIN B]
